Results from article PMC12444563 (ACS Omega, 2025).
Starred links: 1 amine or outer side, 2 acyl side, 3 side chain; linkers in the order of their positions; H or OH if unused. Non-standard residues stand in square brackets, D forms with d. Residues, ends and D or L forms follow the SMILES beside them. *: point of attachment. Paclitaxel(2'-OCO-DMEDA) = CC(=O)O[C@H]1C(=O)[C@@]2(C)[C@H]([C@H](OC(=O)c3ccccc3)[C@]3(O)C[C@H](OC(=O)[C@H](OC(=O)N(C)CCN(C)*)[C@@H](NC(=O)c4ccccc4)c4ccccc4)C(C)=C1C3(C)C)[C@]1(OC(C)=O)CO[C@@H]1C[C@@H]2O; Fmoc = O=C(OCC1c2ccccc2-c2ccccc21)*; PABC = O=C(OCc1ccc(N[*:1])cc1)[*:2]

What was measured:
[1] = molecular target: T1, bovine spleen Cathepsin B (Bos taurus, UniProt P07688); assay: Cathepsin B cleavage assay (UHPLC-HRMS Orbitrap analysis); format: biochemical; conditions: for % residual compound, Average %: 37 °C, pH 5.4, 5 μM, triplicate
T1 construct: bovine spleen Cathepsin B (SigmaAldrich C6286, ≥10 units/mg protein); purchased SigmaAldrich C6286; host or cells: bovine spleen (tissue-derived)
Protocol: The Cathepsin B cleavage assay was performed by incubating compounds 1–4 at 37 °C under gently shaking conditions in the presence of the active form of Cathepsin B. More specifically, 122.4 μL of an enzyme-activating solution (composed of 7.48 mg of L-cysteine dissolved in 2 mL of a buffer solution containing 20 mM NaOAc, 1 mM EDTA, pH 5.4 to give a final cysteine concentration of 30.88 mM) was mixed with 12.6 μL of enzyme stock solution, previously prepared by solubilization of bovine spleen Cathepsin B (SigmaAldrich C6286, ≥10 units/mg protein) in 1 mL of buffer solution (without cysteine) to give a concentration of enzyme stock solution of 12 units/mL. After the dilution, the final concentration of Cathepsin B was 1.12 u/mL. Then, the diluted enzyme solution was incubated at 37 °C for 15 min to activate Cathepsin B. After 15 min, 6 μL of 117 μM compound solution, previously prepared by diluting 5.85 μL of 1 mM stock solution of the compound in 44.15 μL of dry DMSO (giving a 117 μM solution), was added to the test tube and the cleavage assay solution was incubated at 37 °C under gentle shaking conditions. […] The solutions were then centrifuged for 10 min at 6000 rpm. Blank solutions were prepared for each compound by dilution of 6 μL of a 117 μM compound solution into 135 μL of an enzyme-activating solution. UHPLC-MS analyses were carried out using a Vanquish UHPLC System (Thermo Fisher Scientific) and Orbitrap Exploris 120 (Thermo Fisher Scientific). Thermo Scientific Xcalibur software was used to control the instruments and acquire the data. Freestyle 1.8 software was used for processing the data. UHPLC chromatographic separations were performed on a reversed-phase column Accucore C18 50 × 2.1 mm, 2.6 μm (Thermo Fisher Scientific). A gradient system was used with the mobile phase consisting of solvent A: H2O + 0.05% formic acid and solvent B: acetonitrile. The areas of the peak of compounds 1–4 in the extracted ion chromatogram were used to evaluate the kinetics of the cleavage process. The percentage of residual compound was calculated as the ratio between the areas of the peak of the full compound at the desired time point and in the blank analysis. %Residualcompound=areacompoundatthedesiredtimepoint/areacompoundintheblanksolution×100

[2] = molecular target: T1, bovine spleen Cathepsin B; assay: Preliminary Cathepsin B cleavage assay for protocol validation, HPLC vs UHPLC-HRMS; format: biochemical; conditions: for % residual compound, HRMS: UHPLC-HRMS (Orbitrap) detection; for % residual compound, HPLC: analytical HPLC detection
Protocol: The Cathepsin B cleavage assay was performed by incubating compounds 1–4 at 37 °C under gently shaking conditions in the presence of the active form of Cathepsin B. More specifically, 122.4 μL of an enzyme-activating solution (composed of 7.48 mg of L-cysteine dissolved in 2 mL of a buffer solution containing 20 mM NaOAc, 1 mM EDTA, pH 5.4 to give a final cysteine concentration of 30.88 mM) was mixed with 12.6 μL of enzyme stock solution, previously prepared by solubilization of bovine spleen Cathepsin B (SigmaAldrich C6286, ≥10 units/mg protein) in 1 mL of buffer solution (without cysteine) to give a concentration of enzyme stock solution of 12 units/mL. After the dilution, the final concentration of Cathepsin B was 1.12 u/mL. Then, the diluted enzyme solution was incubated at 37 °C for 15 min to activate Cathepsin B. After 15 min, 6 μL of 117 μM compound solution, previously prepared by diluting 5.85 μL of 1 mM stock solution of the compound in 44.15 μL of dry DMSO (giving a 117 μM solution), was added to the test tube and the cleavage assay solution was incubated at 37 °C under gentle shaking conditions. Sample aliquots (10 μL) were taken out at 15, 30 min, and 1, 2, 4, and 24 h and quenched with 10 μL of MeOH+1% formic acid. The solutions were then centrifuged for 10 min at 6000 rpm. Blank solutions were prepared for each compound by dilution of 6 μL of a 117 μM compound solution into 135 μL of an enzyme-activating solution. UHPLC-MS analyses were carried out using a Vanquish UHPLC System (Thermo Fisher Scientific) and Orbitrap Exploris 120 (Thermo Fisher Scientific). Thermo Scientific Xcalibur software was used to control the instruments and acquire the data. Freestyle 1.8 software was used for processing the data. UHPLC chromatographic separations were performed on a reversed-phase column Accucore C18 50 × 2.1 mm, 2.6 μm (Thermo Fisher Scientific). A gradient system was used with the mobile phase consisting of solvent A: H2O + 0.05% formic acid and solvent B: acetonitrile. The areas of the peak of compounds 1–4 in the extracted ion chromatogram were used to evaluate the kinetics of the cleavage process. The percentage of residual compound was calculated as the ratio between the areas of the peak of the full compound at the desired time point and in the blank analysis. %Residualcompound=areacompoundatthedesiredtimepoint/areacompoundintheblanksolution×100
Based on the similarity of the Cathepsin B recognized sequence GFLG to GPLG, we inferred that the latter could also be recognized by the same lysosomal enzyme. Therefore, a Cathepsin B cleavage assay for compound 1 was planned, and the experiment was designed to focus on a short incubation time (up to 4 h) to better mimic the fast transient and dynamic environment of drug clearance and activation generally occurring in in vivo conditions. An Orbitrap mass analyzer was chosen to analyze the final incubated solution due to its higher sensitivity compared to traditional HPLC methods, thereby allowing precise evaluation of the drug release kinetics even at low compound concentrations. At first, to validate the designed Orbitrap-protocol over the HPLC protocols generally reported in the literature, we initially performed the cleavage assay on compound 4 containing the VA sequence, for which the recognition by the Cathepsin B enzyme is well documented. ,− For instance, compound 4 was incubated at 37 °C with a sodium acetate buffer solution (final concentration of 4: 5 μM) containing the active form of the Cathepsin B enzyme, and diluted aliquots at 0–30–60–120 and 240 min were collected and analyzed by a UHPLC-Orbitrap instrument and, in parallel, by analytical HPLC. As shown in Figure S26 of the Supporting Information, the degradation of the VA-based compound 4 can be appreciated from both analyses; however, an expected remarkable difference between the two methods was noted regarding the final concentration of the compound 4 at the end of the experiment. […]

[3] = 2 min incubation with Cathepsin B
[4] = 15 min incubation with Cathepsin B
[5] = 30 min incubation with Cathepsin B
[6] = 60 min incubation with Cathepsin B
[7] = 120 min incubation with Cathepsin B

Row | Structure (SMILES) | % residual compound, Average % [1, 3] | % residual compound, Average % [1, 4] | % residual compound, Average % [1, 5] | % residual compound, Average % [1, 6] | % residual compound, Average % [1, 7] | % residual compound, % R1 ([1]; replicate R1, 2 min) | % residual compound, % R1 ([1]; replicate R1, 15 min) | % residual compound, % R1 ([1]; replicate R1, 30 min) | % residual compound, % R1 ([1]; replicate R1, 60 min) | % residual compound, % R1 ([1]; replicate R1, 120 min) | % residual compound, % R1 ([1]; replicate R1, 240 min) | % residual compound, % R3 ([1]; replicate R3, 2 min) | % residual compound, % R3 ([1]; replicate R3, 15 min) | % residual compound, % R3 ([1]; replicate R3, 30 min) | % residual compound, % R3 ([1]; replicate R3, 60 min) | % residual compound, % R3 ([1]; replicate R3, 120 min) | % residual compound, % R3 ([1]; replicate R3, 240 min) | also measured
1 | CC(=O)O[C@H]1C(=O)[C@@]2(C)[C@H]([C@H](OC(=O)c3ccccc3)[C@]3(O)C[C@H](OC(=O)[C@H](OC(=O)N(C)CCN(C)C(=O)OCc4ccc(NC(=O)CNC(=O)[C@H](CC(C)C)NC(=O)[C@@H]5CCCN5C(=O)CNC(=O)OCC5c6ccccc6-c6ccccc65)cc4)[C@@H](NC(=O)c4ccccc4)c4ccccc4)C(C)=C1C3(C)C)[C@]1(OC(C)=O)CO[C@@H]1C[C@@H]2O [Compound 1, Fmoc-GPLG-PABC-diamine-PTX] (Fmoc-GPLG[PABC]-{Paclitaxel(2'-OCO-DMEDA)}) | 94.40% | 80.50% | 73.35% | 68.45% | 65.40% | 108.85% | 85.04% | 73.97% | 68.69% | 69.51% | 56.09% | 97.22% | 78.25% | 74.08% | 69.05% | 67.07% | 70.97% | peak of free Paclitaxel in the incubated solution ([1]; 4 h incubation with Cathepsin B, HRMS): not possible to observe; peak of free PTX in the incubated solution ([1]; 24 h incubation with Cathepsin B, HRMS): confirmed the presence; cleavage kinetics compared within compounds 1-4 ([1]; Cathepsin B, compound 1: initial time points 2 min to 1 h, compound 2: over 4 h): fastest
2 | CC(=O)O[C@H]1C(=O)[C@@]2(C)[C@H]([C@H](OC(=O)c3ccccc3)[C@]3(O)C[C@H](OC(=O)[C@H](OC(=O)N(C)CCN(C)C(=O)OCc4ccc(NC(=O)CNC(=O)[C@H](CC(C)C)NC(=O)[C@H](Cc5ccccc5)NC(=O)CNC(=O)OCC5c6ccccc6-c6ccccc65)cc4)[C@@H](NC(=O)c4ccccc4)c4ccccc4)C(C)=C1C3(C)C)[C@]1(OC(C)=O)CO[C@@H]1C[C@@H]2O [Compound 2, Fmoc-GFLG-PABC-diamine-PTX] (Fmoc-GFLG[PABC]-{Paclitaxel(2'-OCO-DMEDA)}) | 99.63% | 98.45% | 95.35% | 95.89% | 94.14% | 99.33% | 98.52% | 92.26% | 92.45% | 99.27% | 96.36% | 104.39% | 102.02% | 95.37% | 97.64% | 90.86% | 89.52% | –
3 | CC(=O)O[C@H]1C(=O)[C@@]2(C)[C@H]([C@H](OC(=O)c3ccccc3)[C@]3(O)C[C@H](OC(=O)[C@H](OC(=O)N(C)CCN(C)C(=O)OCc4ccc(NC(=O)[C@H](CCCNC(N)=O)NC(=O)[C@@H](NC(=O)OCC5c6ccccc6-c6ccccc65)C(C)C)cc4)[C@@H](NC(=O)c4ccccc4)c4ccccc4)C(C)=C1C3(C)C)[C@]1(OC(C)=O)CO[C@@H]1C[C@@H]2O [Compound 3, Fmoc-VCit-PABC-diamine-PTX] | 99.48% | 89.60% | 88.90% | 82.88% | 80.39% | 91.44% | 87.83% | 70.58% | 80.56% | 76.58% | 81.21% | 106.03% | 90.55% | 97.99% | 89.93% | 81.32% | 71.70% | % residual compound, Average % ([1]; 240 min (4 h) incubation with Cathepsin B): 76%
4 | CC(=O)O[C@H]1C(=O)[C@@]2(C)[C@H]([C@H](OC(=O)c3ccccc3)[C@]3(O)C[C@H](OC(=O)[C@H](OC(=O)N(C)CCN(C)C(=O)OCc4ccc(NC(=O)[C@H](C)NC(=O)[C@@H](NC(=O)OCC5c6ccccc6-c6ccccc65)C(C)C)cc4)[C@@H](NC(=O)c4ccccc4)c4ccccc4)C(C)=C1C3(C)C)[C@]1(OC(C)=O)CO[C@@H]1C[C@@H]2O [Compound 4, Fmoc-VA-PABC-diamine-PTX] | 98.31% | 89.84% | 76.32% | 72.91% | 58.50% | 105.08% | 98.99% | 79.84% | 76.95% | 61.83% | 68.01% | 98.31% | 83.72% | 80.54% | 75.94% | 52.91% | 49.81% | % residual compound, HRMS ([2]; 30 min with Cathepsin B): 73.35%; % residual compound, HRMS ([2]; 60 min with Cathepsin B): 68.45%; % residual compound, HRMS ([2]; 120 min with Cathepsin B): 65.40%; % residual compound, HRMS ([2]; 240 min (4 h) with Cathepsin B): 63.70%; % residual compound, HPLC ([2]; 30 min with Cathepsin B): 25.11%; % residual compound, HPLC ([2]; 60 min with Cathepsin B): 20.48%; % residual compound, HPLC ([2]; 120 min with Cathepsin B): 13.68%
